In PMC6145842 (Biochemical and biophysical research communications, 2018):

Molecular target: T1, DXO (Mus musculus, UniProt O70348)
T1 sequence (O70348 1-397): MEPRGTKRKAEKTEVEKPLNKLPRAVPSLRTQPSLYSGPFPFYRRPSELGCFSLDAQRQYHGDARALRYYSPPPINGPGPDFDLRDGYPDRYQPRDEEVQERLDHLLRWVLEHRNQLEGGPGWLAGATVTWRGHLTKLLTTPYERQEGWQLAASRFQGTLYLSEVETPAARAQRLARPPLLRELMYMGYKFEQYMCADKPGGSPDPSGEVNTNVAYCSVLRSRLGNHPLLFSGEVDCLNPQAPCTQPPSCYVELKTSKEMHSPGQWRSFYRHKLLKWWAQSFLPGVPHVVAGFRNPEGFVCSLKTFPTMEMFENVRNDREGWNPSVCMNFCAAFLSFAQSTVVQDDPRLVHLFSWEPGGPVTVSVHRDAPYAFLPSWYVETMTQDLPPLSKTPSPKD
Assay: crystal structure at […] Å
Format: binding

- Kd: 20 to 30 mM
Structure (SMILES): Nc1ncnc2c1ncn2[C@@H]1O[C@H](COP(=O)(O)O)[C@@H](OP(=O)(O)O)[C@H]1O [pAp, adenosine 3’,5’-bisphosphate]
